Each block holds one molecule with its values, some of them ahead of it.
Experiments:
[1] = test system: HeLa; assay: Antiproliferative activity against human HeLa cells assessed as reduction in cell viability after 72 hrs by MTT assay; type: functional, cell-based
[2] = test system: MDA-MB-231; assay: Antiproliferative activity against human MDA-MB-231 cells assessed as reduction in cell viability after 72 hrs by MTT assay; type: functional, cell-based; conditions: MDA-MB-231, 72 h
[3] = molecular target: T1, Lysine-specific histone demethylase 1A (Homo sapiens, UniProt O60341)
[4] = molecular target: T1, Lysine-specific histone demethylase 1A; assay: Inhibition of recombinant human N-terminal GST-tagged KDM1A expressed in Escherichia coli using H3K4me2 as substrate preincubated for 15 mins followed by substrate addition measured after 1 hr by peroxidase coupled enzyme assay
[5] = molecular target: T2, Amine oxidase [flavin-containing] A (Homo sapiens, UniProt P21397); assay: Inhibition of human recombinant MAO-A using 3-(2-Aminophenyl)-3-oxopropanamine as substrate preincubated for 15 mins followed by substrate addition measured after 1 hr by fluorescence microplate reader analysis
T2 sequence (P21397 whole entry): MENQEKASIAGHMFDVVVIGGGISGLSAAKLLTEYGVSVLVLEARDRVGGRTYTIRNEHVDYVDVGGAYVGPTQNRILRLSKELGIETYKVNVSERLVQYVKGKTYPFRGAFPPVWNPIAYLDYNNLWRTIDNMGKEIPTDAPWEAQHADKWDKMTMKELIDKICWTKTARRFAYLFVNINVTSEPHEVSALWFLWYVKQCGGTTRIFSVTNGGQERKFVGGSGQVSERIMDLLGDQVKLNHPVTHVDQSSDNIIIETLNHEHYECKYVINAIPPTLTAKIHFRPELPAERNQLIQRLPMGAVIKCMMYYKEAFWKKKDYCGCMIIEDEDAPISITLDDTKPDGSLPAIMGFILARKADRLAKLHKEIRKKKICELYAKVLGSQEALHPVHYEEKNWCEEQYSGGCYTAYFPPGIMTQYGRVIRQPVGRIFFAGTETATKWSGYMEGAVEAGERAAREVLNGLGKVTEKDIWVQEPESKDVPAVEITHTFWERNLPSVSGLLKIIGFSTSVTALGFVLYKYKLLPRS

[6] = molecular target: T3, Amine oxidase [flavin-containing] B (Homo sapiens, UniProt P27338); assay: Inhibition of human recombinant MAO-B using 3-(2-Aminophenyl)-3-oxopropanamine as substrate preincubated for 15 mins followed by substrate addition measured after 1 hr by fluorescence microplate reader analysis
T3 sequence (P27338 whole entry): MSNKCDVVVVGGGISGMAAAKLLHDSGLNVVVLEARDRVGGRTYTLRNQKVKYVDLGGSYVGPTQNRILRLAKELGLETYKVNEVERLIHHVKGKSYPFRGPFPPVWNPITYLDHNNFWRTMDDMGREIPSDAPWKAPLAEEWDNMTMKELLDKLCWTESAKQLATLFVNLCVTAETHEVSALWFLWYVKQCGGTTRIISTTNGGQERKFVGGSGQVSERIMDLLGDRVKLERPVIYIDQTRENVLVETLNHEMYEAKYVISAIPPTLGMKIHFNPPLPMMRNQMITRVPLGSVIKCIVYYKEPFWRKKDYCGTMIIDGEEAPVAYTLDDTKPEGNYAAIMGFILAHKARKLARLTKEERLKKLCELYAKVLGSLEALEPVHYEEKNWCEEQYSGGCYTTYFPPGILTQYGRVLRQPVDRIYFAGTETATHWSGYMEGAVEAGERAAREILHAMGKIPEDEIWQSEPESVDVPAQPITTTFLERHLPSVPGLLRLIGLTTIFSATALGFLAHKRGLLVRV

[7] = molecular target: T1, Lysine-specific histone demethylase 1A; assay: Inhibition of human recombinant KDM1A using H3 (1 to 21 residues)-K4me2 peptide substrate by fluorescence coupling enzyme assay
[8] = molecular target: T1, Lysine-specific histone demethylase 1A; assay: Inhibition of full length human KDM1A expressed in Escherichia coli using biotin-H3K4me1 as substrate incubated for 1 hr by TR-FRET assay
[9] = molecular target: T1, Lysine-specific histone demethylase 1A; assay: Inhibition of KDM1A in human THP1 cells assessed as inhibition of CD11b expressing cells incubated for 4 days by DAPI staining based flow cytometry; type: cell-based, THP-1
[10] = molecular target: T2, Amine oxidase [flavin-containing] A; assay: Inhibition of MAO-A (unknown origin) preincubated for 10 mins followed by substrate addition measured after 60 mins by MAO-Glo assay
[11] = molecular target: T3, Amine oxidase [flavin-containing] B
[12] = molecular target: T1, Lysine-specific histone demethylase 1A; assay: biochemical
[13] = molecular target: T4, Lysine-specific demethylase 4C (Homo sapiens, UniProt Q9H3R0); assay: Inhibition of KDM4C (1 to 350 residues) (unknown origin) expressed in Escherichia coli using […] as substrate
T4 sequence (Q9H3R0 whole entry): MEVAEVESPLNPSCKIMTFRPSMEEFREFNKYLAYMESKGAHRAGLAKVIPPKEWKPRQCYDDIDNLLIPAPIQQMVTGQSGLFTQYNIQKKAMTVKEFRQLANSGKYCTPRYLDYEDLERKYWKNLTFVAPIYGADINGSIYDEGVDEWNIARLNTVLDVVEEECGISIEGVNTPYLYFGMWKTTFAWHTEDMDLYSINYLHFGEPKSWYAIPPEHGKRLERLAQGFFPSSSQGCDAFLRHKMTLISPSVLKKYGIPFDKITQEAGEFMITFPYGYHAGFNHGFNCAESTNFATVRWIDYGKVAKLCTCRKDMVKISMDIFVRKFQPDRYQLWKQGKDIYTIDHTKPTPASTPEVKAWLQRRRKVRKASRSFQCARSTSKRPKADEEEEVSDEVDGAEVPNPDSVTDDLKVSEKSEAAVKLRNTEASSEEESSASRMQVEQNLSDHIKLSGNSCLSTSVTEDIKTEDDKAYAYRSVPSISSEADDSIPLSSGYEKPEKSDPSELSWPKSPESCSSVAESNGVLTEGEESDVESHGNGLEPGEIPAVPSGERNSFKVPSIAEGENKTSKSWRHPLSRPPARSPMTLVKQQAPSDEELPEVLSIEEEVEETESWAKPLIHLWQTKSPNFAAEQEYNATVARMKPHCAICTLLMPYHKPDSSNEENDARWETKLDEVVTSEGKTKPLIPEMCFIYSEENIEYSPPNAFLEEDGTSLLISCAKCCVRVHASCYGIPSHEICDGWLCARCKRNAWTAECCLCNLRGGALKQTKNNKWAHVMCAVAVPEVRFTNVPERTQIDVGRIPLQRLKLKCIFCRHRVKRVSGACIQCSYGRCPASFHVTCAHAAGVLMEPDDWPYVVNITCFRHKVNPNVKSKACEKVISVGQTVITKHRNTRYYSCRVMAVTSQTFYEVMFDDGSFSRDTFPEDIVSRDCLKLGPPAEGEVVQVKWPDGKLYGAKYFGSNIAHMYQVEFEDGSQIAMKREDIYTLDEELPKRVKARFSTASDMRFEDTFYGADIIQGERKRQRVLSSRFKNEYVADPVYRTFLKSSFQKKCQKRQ

[14] = Antiproliferative activity against human PC3 cells assessed as reduction in cell viability by MTT assay; type: functional, cell-based; conditions: PC-3
[15] = test system: LNCaP; assay: Antiproliferative activity against human LNCAP cells assessed as reduction in cell viability by MTT assay; type: functional, cell-based
[16] = Antiproliferative activity against human VCaP cells assessed as reduction in cell viability by MTT assay; type: functional, cell-based
[17] = molecular target: T5, Lysine-specific demethylase 4A (Homo sapiens, UniProt O75164)
T5 sequence (O75164 whole entry): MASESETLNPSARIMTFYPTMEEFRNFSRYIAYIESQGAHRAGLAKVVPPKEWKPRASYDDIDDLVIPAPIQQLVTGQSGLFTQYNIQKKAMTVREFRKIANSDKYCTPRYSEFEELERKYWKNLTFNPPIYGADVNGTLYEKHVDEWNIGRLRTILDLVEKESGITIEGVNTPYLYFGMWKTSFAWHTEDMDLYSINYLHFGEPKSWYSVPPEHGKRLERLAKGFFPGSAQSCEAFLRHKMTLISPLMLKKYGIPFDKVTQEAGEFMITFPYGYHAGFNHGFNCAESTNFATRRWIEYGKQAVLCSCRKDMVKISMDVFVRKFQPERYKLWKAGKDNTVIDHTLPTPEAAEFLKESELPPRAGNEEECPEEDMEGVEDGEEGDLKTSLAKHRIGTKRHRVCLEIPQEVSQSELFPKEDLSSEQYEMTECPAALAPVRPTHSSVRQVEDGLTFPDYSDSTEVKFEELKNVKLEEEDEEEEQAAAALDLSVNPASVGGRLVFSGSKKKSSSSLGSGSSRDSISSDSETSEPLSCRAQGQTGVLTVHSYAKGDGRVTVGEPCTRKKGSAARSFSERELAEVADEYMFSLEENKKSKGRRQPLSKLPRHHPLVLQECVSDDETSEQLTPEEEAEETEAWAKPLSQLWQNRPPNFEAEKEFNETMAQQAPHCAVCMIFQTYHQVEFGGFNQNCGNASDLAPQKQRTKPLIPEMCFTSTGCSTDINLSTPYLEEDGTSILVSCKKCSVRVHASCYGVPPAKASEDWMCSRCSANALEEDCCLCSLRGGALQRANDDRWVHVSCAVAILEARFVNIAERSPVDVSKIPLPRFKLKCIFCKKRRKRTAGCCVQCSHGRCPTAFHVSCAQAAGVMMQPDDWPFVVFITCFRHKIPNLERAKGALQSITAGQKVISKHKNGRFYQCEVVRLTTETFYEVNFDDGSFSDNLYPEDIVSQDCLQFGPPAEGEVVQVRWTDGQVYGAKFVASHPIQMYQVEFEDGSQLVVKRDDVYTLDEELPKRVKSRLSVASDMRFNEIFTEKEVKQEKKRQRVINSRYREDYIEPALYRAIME

[18] = molecular target: Lysine-specific demethylase 5A (Homo sapiens, UniProt P29375)
[19] = molecular target: T6, Lysine-specific demethylase 4B (Homo sapiens, UniProt O94953); assay: biochemical
T6 sequence (O94953 whole entry): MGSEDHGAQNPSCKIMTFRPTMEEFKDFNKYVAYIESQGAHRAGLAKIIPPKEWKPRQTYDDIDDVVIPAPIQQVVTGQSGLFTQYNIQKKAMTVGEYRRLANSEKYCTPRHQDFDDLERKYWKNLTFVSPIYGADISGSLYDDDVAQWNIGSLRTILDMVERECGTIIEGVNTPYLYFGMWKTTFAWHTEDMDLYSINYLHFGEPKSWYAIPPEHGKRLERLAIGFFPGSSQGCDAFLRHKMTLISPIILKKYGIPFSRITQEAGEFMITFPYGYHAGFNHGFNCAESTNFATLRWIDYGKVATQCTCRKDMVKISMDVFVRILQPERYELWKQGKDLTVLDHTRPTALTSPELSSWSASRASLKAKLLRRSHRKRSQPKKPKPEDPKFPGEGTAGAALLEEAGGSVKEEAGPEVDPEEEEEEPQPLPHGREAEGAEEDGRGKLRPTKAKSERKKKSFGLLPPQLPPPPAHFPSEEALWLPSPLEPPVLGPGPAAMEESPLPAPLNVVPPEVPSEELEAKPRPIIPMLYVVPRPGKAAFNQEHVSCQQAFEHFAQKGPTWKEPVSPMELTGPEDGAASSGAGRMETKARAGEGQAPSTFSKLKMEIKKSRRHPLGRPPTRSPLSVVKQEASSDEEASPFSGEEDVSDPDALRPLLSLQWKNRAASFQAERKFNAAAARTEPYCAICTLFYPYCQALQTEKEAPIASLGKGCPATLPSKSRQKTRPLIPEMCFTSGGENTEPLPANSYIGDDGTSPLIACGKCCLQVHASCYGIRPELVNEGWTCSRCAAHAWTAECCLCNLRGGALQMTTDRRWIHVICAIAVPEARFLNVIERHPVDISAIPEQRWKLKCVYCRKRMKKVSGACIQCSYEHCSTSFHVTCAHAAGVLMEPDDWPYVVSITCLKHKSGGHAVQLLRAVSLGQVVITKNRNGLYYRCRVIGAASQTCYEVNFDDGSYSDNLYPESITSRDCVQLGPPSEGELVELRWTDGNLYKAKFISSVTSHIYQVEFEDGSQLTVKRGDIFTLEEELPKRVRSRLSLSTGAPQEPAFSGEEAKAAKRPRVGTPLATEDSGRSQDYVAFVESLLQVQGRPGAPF

[20] = molecular target: T1, Lysine-specific histone demethylase 1A; assay: Inhibition of human recombinant KDM1A expressed in Escherichia coli using H3K4me peptide substrate preincubated for 15 mins followed substrate addition measured after 12 mins by peroxidase coupled enzyme assay
[21] = molecular target: T2, Amine oxidase [flavin-containing] A; assay: Inhibition of human recombinant MAO-A expressed in Pichia pastoris preincubated for 15 mins followed by substrate addition measured after 30 mins by MAO-Glo assay
[22] = molecular target: T3, Amine oxidase [flavin-containing] B; assay: Inhibition of human recombinant MAO-B expressed in Pichia pastoris preincubated for 15 mins followed by substrate addition measured after 30 mins by MAO-Glo assay
[23] = molecular target: T2, Amine oxidase [flavin-containing] A; assay: Inhibition of MAO-A (unknown origin) using MAO substrate incubated for 1 hr by MAO-Glo assay
[24] = molecular target: T3, Amine oxidase [flavin-containing] B; assay: Inhibition of MAO-B (unknown origin) using MAO substrate incubated for 1 hr by MAO-Glo assay

Lysine-specific demethylase 5A, sequence (P29375 whole entry): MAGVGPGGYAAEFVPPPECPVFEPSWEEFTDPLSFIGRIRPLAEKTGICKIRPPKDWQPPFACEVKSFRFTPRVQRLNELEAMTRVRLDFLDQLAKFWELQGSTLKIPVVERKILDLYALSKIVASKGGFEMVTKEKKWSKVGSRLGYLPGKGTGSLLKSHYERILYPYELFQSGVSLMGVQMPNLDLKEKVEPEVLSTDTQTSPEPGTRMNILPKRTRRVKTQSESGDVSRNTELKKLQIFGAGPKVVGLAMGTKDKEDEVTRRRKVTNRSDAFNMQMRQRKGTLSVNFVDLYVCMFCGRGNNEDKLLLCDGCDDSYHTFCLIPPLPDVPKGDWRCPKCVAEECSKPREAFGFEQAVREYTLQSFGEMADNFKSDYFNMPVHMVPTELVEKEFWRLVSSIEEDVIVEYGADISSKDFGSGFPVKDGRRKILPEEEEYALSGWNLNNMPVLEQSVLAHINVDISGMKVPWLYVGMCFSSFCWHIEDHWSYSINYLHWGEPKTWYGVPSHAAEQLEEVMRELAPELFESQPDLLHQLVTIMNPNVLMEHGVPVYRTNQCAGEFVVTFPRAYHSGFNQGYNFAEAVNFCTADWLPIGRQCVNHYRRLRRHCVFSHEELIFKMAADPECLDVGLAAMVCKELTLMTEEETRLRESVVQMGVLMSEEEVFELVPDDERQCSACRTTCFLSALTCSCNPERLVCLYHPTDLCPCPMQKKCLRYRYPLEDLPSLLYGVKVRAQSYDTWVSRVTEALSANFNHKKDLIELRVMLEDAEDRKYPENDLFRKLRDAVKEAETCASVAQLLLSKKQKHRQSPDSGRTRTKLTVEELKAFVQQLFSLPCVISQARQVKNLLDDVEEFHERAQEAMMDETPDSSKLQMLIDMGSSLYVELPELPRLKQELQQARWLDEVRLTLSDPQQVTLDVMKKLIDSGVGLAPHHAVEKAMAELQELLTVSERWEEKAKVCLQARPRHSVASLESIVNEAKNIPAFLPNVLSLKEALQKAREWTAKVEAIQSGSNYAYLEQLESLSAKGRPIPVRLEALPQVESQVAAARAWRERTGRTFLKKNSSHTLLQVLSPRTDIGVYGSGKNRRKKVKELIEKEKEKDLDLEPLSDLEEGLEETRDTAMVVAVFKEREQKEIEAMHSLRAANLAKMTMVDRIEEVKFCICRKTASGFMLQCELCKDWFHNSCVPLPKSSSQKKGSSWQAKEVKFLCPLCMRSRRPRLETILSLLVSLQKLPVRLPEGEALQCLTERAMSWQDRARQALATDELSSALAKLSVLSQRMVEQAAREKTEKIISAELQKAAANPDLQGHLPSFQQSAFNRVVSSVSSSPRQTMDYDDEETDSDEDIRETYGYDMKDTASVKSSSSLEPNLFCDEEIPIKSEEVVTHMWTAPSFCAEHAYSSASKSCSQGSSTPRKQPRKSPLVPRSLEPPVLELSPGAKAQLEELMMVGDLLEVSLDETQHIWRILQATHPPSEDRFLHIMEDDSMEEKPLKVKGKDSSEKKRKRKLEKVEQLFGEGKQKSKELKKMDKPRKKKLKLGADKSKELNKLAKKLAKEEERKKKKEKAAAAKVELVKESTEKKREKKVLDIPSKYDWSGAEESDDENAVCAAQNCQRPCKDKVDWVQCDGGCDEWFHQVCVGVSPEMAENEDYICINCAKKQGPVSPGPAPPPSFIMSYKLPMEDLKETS

- IC50 [1]: 0.0012 µM
- IC50 [2]: 0.0012 µM
- IC50 [3]: 10.1 µM
SMILES: CSCCc1nc(-c2cc(N)ccc2Cl)oc1C

- IC50 [4]: 0.07 µM
- IC50 [5]: > 1 µM
- IC50 [6]: > 10 µM
SMILES: CC(C)S(=O)(=O)Nc1cccc(-c2ccc([C@H]3C[C@@H]3N)cc2)c1

- IC50 [7]: < 1 µM
SMILES: O=C(N[C@@H](CCCCN[C@@H]1C[C@H]1c1ccc(F)cc1)C(=O)NCc1ccc(F)cc1)c1ccccc1

- IC50 [8]: < 0.01 µM
- IC50 [9]: < 0.01 µM
SMILES: Cc1ccc(-c2cnc(NC[C@H]3CCNC3)nc2-c2ccc(C#N)cc2)cc1

- IC50 [10]: > 10 µM
- IC50 [11]: > 10 µM
- IC50 [12]: < 1 µM
SMILES: Cc1ncc(NC(=O)c2cccc([C@@H]3C[C@H]3NC3CCOCC3)c2)s1 (racemic)

- IC50 [13]: < 1 µM
- IC50 [15]: < 1 µM
- IC50 [17]: < 1 µM
- IC50 [18]: > 10 µM
- IC50 [19]: 0.01 µM
SMILES: O=C(NCCCc1ccccc1)c1cccc(-c2cc(O)c3ncccc3c2)c1
- IC50 [14]: 0.04 µM
- IC50 [16]: < 1 µM

- IC50 [20]: < 0.1 µM
- IC50 [21]: > 10 µM
- IC50 [22]: > 10 µM
SMILES: CN1CCN(c2ccc(C(=O)Nc3ccc([C@@H]4C[C@]4(N)CCc4ccccc4)cc3)cc2)CC1 (racemic)

- IC50 [23]: > 100 µM
- IC50 [24]: > 100 µM
SMILES: O=C(N[C@@H](CCCCN[C@@H]1C[C@H]1c1ccccc1)C(=O)NCc1cccc(Cl)c1)c1ccc(-c2ccccc2)cc1

Source: ChEMBL document CHEMBL3784917, “Recent Progress in Histone Demethylase Inhibitors” (J Med Chem, 2016)
